What was measured:
[1] = Stability of cannabinoid entourage and Vitamin E components of the powder concentrate by LCMSMS; format: physicochemical; settings: powder stored at 21-25° C.
Description: At each time period, 0.05 g of powder was dissolved in 10 ml-15 of ethanol, diluted to fall within the analytical range, and injected into the LCMSMS for analysis.

[2] = Stability of cannabinoid compounds and Vitamin E components in Beverage 1 (AB White) by LCMSMS; format: physicochemical; settings: AB White stored at 8° C.

CCCCCc1cc(O)c2c(c1)OC(C)(CCC=C(C)C)C=C2 (stereo not drawn) [CBC, cannabichromene]
Stability of Plant-Derived Cannabinoid Compounds in Powder Concentrate ([1]; 0 days): 0.070 mg/g powder
Stability of Plant-Derived Cannabinoid Compounds in Powder Concentrate ([1]; 1 days): 0.072 mg/g powder
Stability of Plant-Derived Cannabinoid Compounds in Powder Concentrate ([1]; 2 days): 0.071 mg/g powder
Stability of Plant-Derived Cannabinoid Compounds in Powder Concentrate ([1]; 3 days): 0.073 mg/g powder
Stability of Plant-Derived Cannabinoid Compounds in Powder Concentrate ([1]; 5 days): 0.070 mg/g powder
Stability of Plant-Derived Cannabinoid Compounds in Powder Concentrate ([1]; 8 days): 0.071 mg/g powder
Stability of Plant-Derived Cannabinoid Compounds in Powder Concentrate ([1]; 9 days): 0.068 mg/g powder
Stability of Plant-Derived Cannabinoid Compounds in Powder Concentrate ([1]; 10 days): 0.071 mg/g powder
Stability of Plant-Derived Cannabinoid Compounds in Powder Concentrate ([1]; 11 days): 0.071 mg/g powder
Stability of Plant-Derived Cannabinoid Compounds in Powder Concentrate ([1]; 12 days): 0.069 mg/g powder
Stability of Plant-Derived Cannabinoid Compounds in Powder Concentrate ([1]; 15 days): 0.073 mg/g powder
Stability of Plant-Derived Cannabinoid Compounds in Powder Concentrate ([1]; 16 days): 0.073 mg/g powder
Stability of Plant-Derived Cannabinoid Compounds in Powder Concentrate ([1]; 17 days): 0.070 mg/g powder
Stability of Plant-Derived Cannabinoid Compounds in Powder Concentrate ([1]; 18 days): 0.072 mg/g powder
Stability of Plant-Derived Cannabinoid Compounds in Powder Concentrate ([1]; 19 days): 0.070 mg/g powder
Stability of Plant-Derived Cannabinoid Compounds in Powder Concentrate ([1]; 22 days): 0.071 mg/g powder
Stability of Plant-Derived Cannabinoid Compounds in Powder Concentrate ([1]; 23 days): 0.069 mg/g powder
Stability of Plant-Derived Cannabinoid Compounds in Powder Concentrate ([1]; 24 days): 0.068 mg/g powder
Stability of Plant-Derived Cannabinoid Compounds in Powder Concentrate ([1]; 25 days): 0.072 mg/g powder
Stability of Plant-Derived Cannabinoid Compounds in Powder Concentrate ([1]; 26 days): 0.071 mg/g powder
Stability of Plant-Derived Cannabinoid Compounds in Powder Concentrate ([1]; 29 days): 0.069 mg/g powder
Stability of Plant-Derived Cannabinoid Compounds in Powder Concentrate ([1]; 30 days): 0.072 mg/g powder
Stability of Plant-Derived Cannabinoid Compounds in Powder Concentrate ([1]; 60 days): 0.068 mg/g powder
Stability of Plant-Derived Cannabinoid Compounds in Powder Concentrate ([1]; 90 days): 0.068 mg/g powder
Stability of Plant-Derived Cannabinoid Compounds in Powder Concentrate ([1]; 120 days): 0.072 mg/g powder
Stability of Plant-Derived Cannabinoid Compounds in Powder Concentrate ([1]; 150 days): 0.072 mg/g powder
Stability of Plant-Derived Cannabinoid Compounds in Powder Concentrate ([1]; 180 days): 0.071 mg/g powder
Stability of Plant-Derived Cannabinoid Compounds in Powder Concentrate ([1]; 210 days): 0.072 mg/g powder
Stability of Plant-Derived Cannabinoid Compounds in Powder Concentrate ([1]; 240 days): 0.068 mg/g powder
Stability of Plant-Derived Cannabinoid Compounds in Powder Concentrate ([1]; 270 days): 0.072 mg/g powder
Stability of Plant-Derived Cannabinoid Compounds in Powder Concentrate ([1]; 300 days): 0.071 mg/g powder
Stability of Plant-Derived Cannabinoid Compounds in Powder Concentrate ([1]; 330 days): 0.069 mg/g powder
Stability of Plant-Derived Cannabinoid Compounds in Powder Concentrate ([1]; 360 days): 0.068 mg/g powder
Stability of Plant-Derived Cannabinoid Compounds in Powder Concentrate ([1]; 390 days): 0.068 mg/g powder
Stability of Plant-Derived Cannabinoid Compounds in Powder Concentrate ([1]; 420 days): 0.069 mg/g powder
Stability of Plant-Derived Cannabinoid Compounds in Powder Concentrate ([1]; 450 days): 0.073 mg/g powder
Stability of Plant-Derived Cannabinoid Compounds in Powder Concentrate ([1]; 480 days): 0.071 mg/g powder
Stability of Plant-Derived Cannabinoid Compounds in Powder Concentrate ([1]; 510 days): 0.069 mg/g powder
Stability of Plant-Derived Cannabinoid Compounds in Powder Concentrate ([1]; 540 days): 0.070 mg/g powder
Stability of Plant-Derived Cannabinoid Compounds in Powder Concentrate ([1]; 570 days): 0.069 mg/g powder
Stability of Plant-Derived Cannabinoid Compounds in AB White, 8° C. ([2]; 0 days): 0.320 µg/mL
Stability of Plant-Derived Cannabinoid Compounds in AB White, 8° C. ([2]; 1 days): 0.314 µg/mL
Stability of Plant-Derived Cannabinoid Compounds in AB White, 8° C. ([2]; 2 days): 0.315 µg/mL
Stability of Plant-Derived Cannabinoid Compounds in AB White, 8° C. ([2]; 3 days): 0.322 µg/mL
Stability of Plant-Derived Cannabinoid Compounds in AB White, 8° C. ([2]; 5 days): 0.322 µg/mL
Stability of Plant-Derived Cannabinoid Compounds in AB White, 8° C. ([2]; 8 days): 0.318 µg/mL
Stability of Plant-Derived Cannabinoid Compounds in AB White, 8° C. ([2]; 9 days): 0.319 µg/mL
Stability of Plant-Derived Cannabinoid Compounds in AB White, 8° C. ([2]; 10 days): 0.314 µg/mL
Stability of Plant-Derived Cannabinoid Compounds in AB White, 8° C. ([2]; 11 days): 0.314 µg/mL
Stability of Plant-Derived Cannabinoid Compounds in AB White, 8° C. ([2]; 12 days): 0.319 µg/mL
Stability of Plant-Derived Cannabinoid Compounds in AB White, 8° C. ([2]; 15 days): 0.317 µg/mL
Stability of Plant-Derived Cannabinoid Compounds in AB White, 8° C. ([2]; 16 days): 0.320 µg/mL
Stability of Plant-Derived Cannabinoid Compounds in AB White, 8° C. ([2]; 17 days): 0.315 µg/mL
Stability of Plant-Derived Cannabinoid Compounds in AB White, 8° C. ([2]; 18 days): 0.312 µg/mL
Stability of Plant-Derived Cannabinoid Compounds in AB White, 8° C. ([2]; 19 days): 0.317 µg/mL
Stability of Plant-Derived Cannabinoid Compounds in AB White, 8° C. ([2]; 22 days): 0.315 µg/mL
Stability of Plant-Derived Cannabinoid Compounds in AB White, 8° C. ([2]; 23 days): 0.321 µg/mL
Stability of Plant-Derived Cannabinoid Compounds in AB White, 8° C. ([2]; 24 days): 0.316 µg/mL
Stability of Plant-Derived Cannabinoid Compounds in AB White, 8° C. ([2]; 25 days): 0.310 µg/mL
Stability of Plant-Derived Cannabinoid Compounds in AB White, 8° C. ([2]; 26 days): 0.316 µg/mL
